One series can be described thus: in vivo. Further details: species or system Sprague Dawley rats. The following applies: Sprague Dawley, rat; for Cmax: po, 10 mg/kg. As to the method: Certain compounds of Table A and Comparative Example 1 (Compound A-7 of copending international patent application serial no. PCT/EP08/063,460) are administered as a solution orally via gavage at 10 mg/kg to Sprague Dawley rats at a dosing volume of 10 ml/kg. Samples are collected via a surgically implanted cannula at selected timepoints deemed necessary to characterize pharmacokinetic parameters. Blood samples are placed on wet ice and spun down to plasma within 5 minutes of timepoint collection. Plasma samples are frozen until bioanalytical analysis.
Certain compounds of Table A and Comparative Example 1 are administered intravenously into a surgically implanted cannula as a solution at 1 mg/kg to Sprague Dawley rats at a dosing volume of […]. Samples are collected via another surgically implanted cannula at selected timepoints deemed necessary to characterize pharmacokinetic parameters. Blood samples are placed on wet ice and spun down to plasma within 5 minutes of timepoint collection. Plasma samples are frozen until bioanalytical analysis.

Series [1] is described as follows: Measurement of thermodynamic solubility. To be noted: thermodynamic from solid, read-out: solubility in water. The format is physicochemical. As to the method:
Thermodynamic solubility for the compounds of the invention listed in Table C is measured by a published literature procedure, e.g., Liping Zhou, et al., J. Pharm. Sci (2007) 96(11): 3052-3071.
The DMSO stocks of test compounds previously dissolved in 25 μL of DMSO (˜10 mM) in mini-prep vial (MPV: Whatman, with PVDF filter and 0.45 μm pore size) chamber were evaporated via a GeneVac HT-4X evaporator for approximately 1 hour, at the guard temperature of 30° C. An aliquot of 250 μL buffer solution (pH 1.0 or 6.8) was added into each MPV chamber containing powders reconstituted from DMSO stock solutions. The MPV filter plungers were pushed down into the chamber until the membrane of the filter plunger slightly touched the surface of the buffer to promote equilibrium between the two compartments and to minimize the adsorption due to non-specific binding of samples during the subsequent 24-hr incubation (at 600 RPM at room temperature). Immediately after the 24-hr incubation, the plungers were further pushed down to the bottom of the chambers. More solution was pushed through the membrane and entered the plunger compartment. The filter/chamber assemblies were then put on a shaker for another 30 minutes at 600 RPM. Afterwards, filtrates were further diluted (1:10) with 50/50 acetonitrile/water solvent followed by a thorough mixing process. Both plates with diluted and undiluted filtrates were analyzed by HPLC and quantified against the four-point standard dilution curve of the same test compound (5 μM, 35 μM, 65 μM and 100 μM, respectively). In the current study, solubility reflects the average of triplicate samples tested at each pH.

Series [2] has as its target T1, HCV NS3-4A serine protease (full-length NS3-4A protein, genotype 1a, strain HCV-1) (Hepatitis C virus genotype 1a, UniProt P26664).
T1 construct: using the full-length NS3-4A protein (genotype 1a, strain HCV-1)
Nature of the series: HCV NS3-4A protease assay. Type of series: biochemical. To be noted: Protease IC50. As to the method:
The inhibitory activity of certain compounds of Table A against HCV NS3-4A serine protease is determined in a homogenous assay using the full-length NS3-4A protein (genotype 1a, strain HCV-1) and a commercially available internally-quenched fluorogenic peptide substrate as described by Taliani, M., et al. 1996 Anal. Biochem. 240:60-67, which is incorporated by reference in its entirety.

The mark [3] stands for this setting: pH 1, simulated gastric fluid, pH of about 1.
Where [4] appears, read: pH 6.8, aqueous buffer, pH of about 6.8.

Here are results for four molecules from patent US20110182850A1, “ORGANIC COMPOUNDS AND THEIR USES” (priority 2009, published 2011).

Usually Cmax stands for the maximum level reached in the sampled fluid or tissue. In general, solubility refers to how much of the substance goes into solution per volume. In general, pIC50 refers to the negative decadic logarithm of the IC50, by convention in mol/L. The bioavailability is the share of a dose that reaches the circulation, judged against a reference dose that is usually intravenous. A high value points to good availability.

pIC50: −log10 of the molar value. Where two headings read alike, the source gives them in different places.

T1 sequence (P26664 1658-1711): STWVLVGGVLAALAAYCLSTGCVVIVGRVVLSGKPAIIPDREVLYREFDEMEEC
T1 sequence (P26664 1027-1657): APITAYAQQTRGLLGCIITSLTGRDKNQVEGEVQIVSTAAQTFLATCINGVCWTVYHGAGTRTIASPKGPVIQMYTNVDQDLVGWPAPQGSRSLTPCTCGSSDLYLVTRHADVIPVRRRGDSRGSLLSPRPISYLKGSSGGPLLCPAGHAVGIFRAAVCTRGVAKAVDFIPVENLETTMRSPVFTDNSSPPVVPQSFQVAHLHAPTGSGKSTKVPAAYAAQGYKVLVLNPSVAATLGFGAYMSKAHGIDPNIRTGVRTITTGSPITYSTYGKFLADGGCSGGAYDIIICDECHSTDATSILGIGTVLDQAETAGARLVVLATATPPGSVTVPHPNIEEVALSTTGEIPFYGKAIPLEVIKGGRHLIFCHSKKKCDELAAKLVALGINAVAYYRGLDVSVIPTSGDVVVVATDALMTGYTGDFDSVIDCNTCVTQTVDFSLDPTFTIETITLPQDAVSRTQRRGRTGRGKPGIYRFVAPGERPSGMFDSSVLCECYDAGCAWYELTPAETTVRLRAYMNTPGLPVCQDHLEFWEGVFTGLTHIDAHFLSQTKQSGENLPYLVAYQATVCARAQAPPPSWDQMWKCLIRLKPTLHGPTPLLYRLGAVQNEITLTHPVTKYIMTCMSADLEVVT

On to `C=C[C@@H]1C[C@]1(NC(=O)[C@@H]1C[C@@]2(CN1C(=O)[C@@H](NC(=O)[C@@H](NC(=O)[C@@H]1CCCCN1C(C)C)C1CCCCC1)C(C)(C)C)C(C)(C)C21CCC1)C(=O)NS(=O)(=O)C1(C)CC1` [Compound 63, (5R,8S)-7-[(2S)-2-{[(2S)-2-cyclohexyl-2-({[(2S)-1-isopropylpiperidin-2-yl]carbonyl}amino)acetyl]amino}-3,3-dimethylbutanoyl]-10,10-dimethyl-N-[(1R,2S)-1-{[(1-methylcyclopropyl)sulfonyl]carbamoyl}-2-vinylcyclopropyl]-7-azadispiro[3.0.4.1]decane-8-carboxamide], for which the peak level in the series “in vivo” (Cmax) was 320 nM. For the same molecule, the solubility at 24 h in series [1] (setting [3]) was ≥ 100 µM; in series [1] (setting [4]) it was ≥ 30 µM. For the same molecule, in series [2], the pIC50 is 8.74.

As for `C=C[C@@H]1C[C@]1(NC(=O)[C@@H]1C[C@@]2(CN1C(=O)[C@@H](NC(=O)[C@@H](NC(=O)[C@@H]1CCCCN1C(C)C)C1CCCCC1)C(C)(C)C)C(C)(C)C21CCC1)C(=O)NS(=O)(=O)C1(CCC)CC1` [Compound 68, (5R,8S)-7-[(2S)-2-{[(2S)-2-cyclohexyl-2-({[(2S)-1-isopropylpiperidin-2-yl]carbonyl}amino)acetyl]amino}-3,3-dimethylbutanoyl]-10,10-dimethyl-N-[(1R,2S)-1-{[(1-propylcyclopropyl)sulfonyl]carbamoyl}-2-vinylcyclopropyl]-7-azadispiro[3.0.4.1]decane-8-carboxamide], the Cmax in the series “in vivo” is 348 nM. The values for the solubility at 24 h in series [1] (setting [3]) and in series [1] (setting [4]) were ≥ 100 µM and ≥ 30 µM, respectively. Moreover, the pIC50 in series [2] was 8.40.

The molecule `CCCC1(S(=O)(=O)NC(=O)[C@@]2(NC(=O)[C@@H]3C[C@@]4(CN3C(=O)[C@@H](NC(=O)[C@@H](NC(=O)[C@@H]3CCCN3CC)C3CCCCC3)C(C)(C)C)C(C)(C)C43CCC3)C[C@H]2CC)CC1` [Compound 75, (5R,8S)-7-[(2S)-2-{[(2S)-2-cyclohexyl-2-({[(2S)-1-ethylpyrrolidin-2-yl]carbonyl}amino)acetyl]amino}-3,3-dimethylbutanoyl]-N-[(1R,2R)-2-ethyl-1-{[(1-propylcyclopropyl)sulfonyl]carbamoyl}cyclopropyl]-10,10-dimethyl-7-azadispiro[3.0.4.1]decane-8-carboxamide] registered a Cmax in “in vivo” of 289 nM. Moreover, the solubility at 24 h in series [1] (setting [3]) was ≥ 100 µM; in series [1] (setting [4]) it was ≥ 30 µM. This molecule had a pIC50 in series [2] of 8.15.

Consider `CC[C@@H]1C[C@]1(NC(=O)[C@@H]1C[C@@]2(CN1C(=O)[C@@H](NC(=O)[C@@H](NC(=O)[C@@H]1CCCCN1CC)C1CCCCC1)C(C)(C)C)C(C)(C)C21CCC1)C(=O)NS(=O)(=O)C1(C)CC1` [Compound 83, (5R,8S)-7-[(2S)-2-{[(2S)-2-cyclohexyl-2-({[(2S)-1-ethylpiperidin-2-yl]carbonyl}amino)acetyl]amino}-3,3-dimethylbutanoyl]-N-[(1R,2R)-2-ethyl-1-{[(1-methylcyclopropyl)sulfonyl]carbamoyl}cyclopropyl]-10,10-dimethyl-7-azadispiro[3.0.4.1]decane-8-carboxamide], for which the bioavailability in the series “in vivo” was 26%. The same molecule came in with a Cmax in the series “in vivo” of 578 nM. In addition, the solubility at 24 h in series [1] (setting [3]) is ≥ 100 µM; in series [1] (setting [4]), ≥ 30 µM. Also, the pIC50 in series [2] was 8.60.
